{
  "source": "paper PMC10119930",
  "about": "“Dual Molecules Targeting 5-HT6 and GABA-A Receptors as a New Approach to Combat Depression Associated with Neuroinflammation” (ACS Chemical Neuroscience, 2023)",
  "key": {"[1]": {"assay": "Thermodynamic solubility in PBS", "type": "physicochemical", "conditions": "Dulbecco’s phosphate buffered saline, 22 °C, aqueous buffer, thermodynamic from solid, PBS pH 7.4, rt", "method": "The temperature of the column was preserved at 30 °C. The experiment was conducted under the following conditions: a flow rate of 5 mL/min, eluent A (water/0.1% HCOOH), eluent B (MeCN/0.1% HCOOH), a gradient of starting from 0% of B to 100% of B over a duration of 3 min. Each sample was injected at a volume of 10 μL in triplicate. […] These solutions were then utilized to generate calibration curves by plotting AUC versus concentration in μg/mL. The examined molecules (2 mg) were dissolved in 1 mL of Dulbecco’s phosphate buffered saline (DPBS). The mixture was then continuously agitated at 22 °C for 24 h using a thermoshaker. Following this period, the mixtures were filtered through a cellulose acetate syringe filter (with a pore size of 0.22 μm), moved to a chromatographic vial, and analyzed. To quantify the investigated compounds, the areas beneath their respective peaks on DAD chromatograms were employed. Solubility was calculated using the calibration curves. […] All the experiments were performed in duplicate."}, "[2]": {"assay": "Parallel artificial membrane permeability assay (PAMPA)", "type": "in vitro ADME", "conditions": "tested at 10^–5 M, PAMPA Plate System Gentest", "protocol": "To estimate the passive transport through cell membranes, we used specialized PAMPA Plate System Gentest acquired from Corning (Tewksbury, MA, USA). The assay was performed as described in the manufacturer’s protocol. The quantitative measurements of tested molecules in apical and basolateral wells were conducted using LC/MS (Waters ACQUITY TQD system with the TQ detector, Milford, USA) and a specific internal standard. The Pe permeability coefficient was calculated rendering the formulas described previously[47],[47] and compared to the reference compound sulpiride."}, "[3]": {"assay": "Metabolic stability in rat liver microsomes", "type": "in vitro ADME", "conditions": "assayed at 10^–7 M", "protocol": "The assay was performed by Eurofins Discovery, a contract research organization, according to standard methodology, described previously.[46]"}, "[4]": {"assay": "Chemical stability assay in PBS", "type": "physicochemical", "protocol": "The quantitative HPLC analyses were acquired using Waters Alliance e2695 separations module (Waters, Milford, CT, USA) containing 2998 photodiode array (PDA), a detector (Waters, Milford, CT, USA), and the SpeedROD RP-18e 50–4.6 mm column (Merck, KGaA, Darmstadt, Germany). The temperature of the column was preserved at 30 °C. […] Each sample was injected at a volume of 10 μL in triplicate. […] The stock solutions were mixed with methanol and diluted, resulting in various solutions with concentrations ranging from 1.0 to 0.125 μg/mL. These solutions were then utilized to generate calibration curves by plotting AUC versus concentration in μg/mL. The examined molecules (2 mg) were dissolved in 1 mL of Dulbecco’s phosphate buffered saline (DPBS). The mixture was then continuously agitated at 22 °C for 24 h using a thermoshaker. Following this period, the mixtures were filtered through a cellulose acetate syringe filter (with a pore size of 0.22 μm), moved to a chromatographic vial, and analyzed. To quantify the investigated compounds, the areas beneath their respective peaks on DAD chromatograms were employed. Solubility was calculated using the calibration curves. Chemical stability assay: Stock solution of 16 in DMSO (10 mg/mL) was used. Next, 25 μL of stock solution was mixed with 975 μL of PBS (Dulbecco’s phosphate-buffered saline, Sigma, Poland). […] HPLC analyses were used to quantify the percentage of molecules that remained at each time point relative to the 0 min time point. Brain tissue stability assay: […] Then, 50 μL of the stock solution was combined with 50 μL of ice-cold 50 mM Tris-HCl buffer (pH 7.4) and 150 μL of brain homogenate (suspended in 20 volumes of 50 mM Tris-HCl buffer, ice cold, pH 7.4). The mix was then incubated at 37 °C and quenched at several time points. To terminate the reaction mixture, 250 μL of the appropriate reaction mixture was mixed with 1000 μL of MeCM in the Eppendorf Tube. Following 10 min of shaking (1500 rpm), samples were centrifuged (10 000 rpm, 10 min, 4 °C) and the acquired supernatant was collected. Before conducting HPLC analysis, the supernatant was filtered via a cellulose acetate syringe filter with a pore size of 0.45 μm and then transferred to a chromatographic vial. HPLC analysis was used to determine the percentage of the tested molecule remaining at each time point, relative to the 0 min time point. Plasma stability assay was performed as described previously.[45] Frozen rat plasma (Wistar) was thawed. […] The samples were collected at relative time points. The reaction was terminated by adding 1200 of μL acetonitrile/methanol mixture (50:50, v/v). The samples were centrifuge at 25 000 rpm for 10 min. HPLC analysis was used to determine the percentage of the tested molecule remaining at each time point relative to the 0 min time point. All the experiments were performed in duplicate."}, "[5]": {"test_system": "BV-2 microglia cells", "assay": "Evaluation of microglia morphology by fluorescence microscopy (MitoTracker) after LPS", "type": "cell-based, mouse", "conditions": "10 μM pretreatment 1 h, LPS 18 h"}, "[6]": {"target": "5-HT6 receptor (Homo sapiens, UniProt P50406)", "sequence (P50406 whole entry)": "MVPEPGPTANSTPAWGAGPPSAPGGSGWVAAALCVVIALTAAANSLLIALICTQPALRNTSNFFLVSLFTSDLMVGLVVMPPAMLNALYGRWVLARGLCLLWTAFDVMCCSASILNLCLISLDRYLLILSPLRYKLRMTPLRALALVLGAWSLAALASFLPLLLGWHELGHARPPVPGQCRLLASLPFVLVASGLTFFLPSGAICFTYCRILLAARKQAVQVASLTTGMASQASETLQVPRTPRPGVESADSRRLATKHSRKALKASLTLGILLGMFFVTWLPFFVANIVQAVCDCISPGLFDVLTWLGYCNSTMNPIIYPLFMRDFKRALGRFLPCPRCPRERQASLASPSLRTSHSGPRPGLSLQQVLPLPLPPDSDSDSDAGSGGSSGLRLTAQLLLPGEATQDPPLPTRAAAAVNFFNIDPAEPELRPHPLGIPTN", "assay": "Functional assay for 5-HT6 receptor, antagonist mode (aequorin, CHO-K1 cells)", "type": "cell-based", "set-up": "expressed in transfected cells; host or cells: CHO-K1 (co-expressing mitochondrially targeted aequorin and G protein α16)", "conditions": "±S.E.M., read-out: 5-HT6 R KB", "protocol": "The studies were acquired according to previous protocols.[41] All the examined compounds (novel and the reference) were dissolved in DMSO (1 mM) and diluted accordingly using the assay buffer, directly in 96-well microplate. The recombinant CHO-K1 cells expressing human GPCR, mitochondrially targeted aequorin, and the promiscuous G protein α16 specific for 5-HT6 were used for the functional assay. The cells were thawed and suspended in the appropriate buffer containing DMEM/HAM’s F12 with 0.1% protease free BSA and were then centrifuged. After adding coelenterazine h to a final concentration of 5 μM, the cell pellet was resuspended in the buffer. The cell suspension was incubated at 16 °C for 16 h while being protected from light, gently shaken, and diluted with assay buffer to a concentration of 5000 cells/mL. Following that, 50 μL of the cell suspension was introduced to preloaded white opaque 96-well microplates containing the tested molecules. This was done using the automatic injectors integrated into the radiometric and luminescence plate counter MicroBeta2 LumiJET (PerkinElmer, USA). The light emission resulting from calcium mobilization was monitored for a duration of 60 s. For examination of the antagonistic properties of tested molecule, following 30 min of incubation, the reference agonist was administrated and the light emission was detected."}},
  "data": [
    {"molecule": "Cc1c(OCc2ccccc2)cccc1N1CCN(CCOC(=O)CCCN)CC1.Cl.Cl", "note": "[Compound 16, 1-(2-((4-Ammoniobutanoyl)oxy)ethyl)-4-(3-(benzyloxy)-2-methylphenyl)piperazin-1-ium Dichloride]", "values": [
      {"measurement": "solubility at 24 h", "setting": "[1]", "value": "> 2000", "unit": "µg/mL"},
      {"measurement": "Papp", "setting": "[2]", "value": 6.24, "unit": "×10⁻⁶ cm/s"},
      {"measurement": "rat liver microsomes Clint", "setting": "[3]", "value": "<115.5 (μL/min)/mg"},
      {"measurement": "rat liver microsomes t0,5", "setting": "[3]", "value": ">60", "unit": "min"},
      {"measurement": "% compound remaining, rt", "setting": "[4]; 0 min", "value": "100 ± 0.2", "unit": "%"},
      {"measurement": "% compound remaining, rt", "setting": "[4]; 15 min", "value": "98.43 ± 1.8", "unit": "%"},
      {"measurement": "% compound remaining, rt", "setting": "[4]; 30 min", "value": "94.23 ± 1.8", "unit": "%"},
      {"measurement": "% compound remaining, rt", "setting": "[4]; 60 min", "value": "92.46 ± 2.2", "unit": "%"},
      {"measurement": "% compound remaining, rt", "setting": "[4]; 120 min", "value": "86.63 ± 2.3", "unit": "%"},
      {"measurement": "% compound remaining, rt", "setting": "[4]; 240 min", "value": "62.21 ± 1.7", "unit": "%"},
      {"measurement": "mitochondrial membrane potential / morphology of microglia exposed to LPS", "setting": "[5]", "value": "protected the microglia from LPS insult"},
      {"measurement": "Kb", "setting": "[6]", "value": "11.9 ± 0.1", "unit": "nM"}
    ]}
  ]
}
